Experimental data published in patent US4327114A, “Substituted 1,8-dihydroxy-9-(10H)anthracenones” (Boehringer Ingelheim GmbH, priority 1980, dated 1982).

What was measured:
skin = conditions: literature or prior use; cited from earlier work
[1] = target: glucose-6-phosphate-dihydrogenase; experiment: Inhibition of glucose-6-phosphate-dihydrogenase after 120 minutes incubation; format: biochemical; conditions: 37° C., pH 7.6, REED and MUENCH
Experimental: The inhibiting effect upon enzymes was determined by measurement of the inhibition of glucose-6-phosphate-dihydrogenase.
The following equilibrium was observed: [drawing 5] (NADP-nicotinamide-adenine-dinucleotide-phosphate). The rate of formation of NADPH is a measure of the enzyme activity; it can be measured by means of the increase in extinction at […] per unit of time.
0.025 ml of glucose-6-phosphate-dihydrogenase were diluted to 10 ml with distilled water (Solution I). 100 mg of nicotinamide-adenine-dinucleotide-phosphate were dissolved in 13 ml of distilled water (Solution II). 47.2 mg of glucose-6-phosphate were dissolved in another 10 ml of distilled water (Solution III). Besides this, a buffer solution (Solution IV) was prepared as follows:
0.28 gm of triethanolamine hydrochloride and 1.461 gm of ethylene-diamine tetraacetic acid disodium salt were dissolved in 1 liter of distilled water, and the solution was adjusted to pH 7.6 with sodium hydroxide. The substance to be tested was dissolved in dimethyl formamide or ethanol (Solution V). Tested end-concentrations: 25, 12.5, 6.25, 3.125, 1.56 and 0.78 μg/ml.
A mixture of 0.1 ml of Solution I, 0.1 ml of Solution II, 2.67 ml of Solution IV and 0.03 ml of Solution V was kept at 37° C. for 120 minutes. After addition of 0.1 ml of Solution III and thorough mixing, the change in extinction was measured photometrically at 366 nm over 3 minutes. The inhibition values were calculated from the average values of 3 measurements (as change of extinction per minute), compared to controls to which the pure solvent was added as inhibitor solution. The ED50 was calculated according to the method of REED and MUENCH from the inhibiting values of the different concentrations. The following table contains the values thus determined: […]

[2] = tested on: skin (forearms of volunteer human test subjects); experiment: Orienting skin compatibility in humans (ointments on forearm); format: in vivo; conditions: 0.44% ointment, 16 hours, doubled to 0.88% after 3 days if no reaction
Experimental: Ointments, each containing individually 0.44% of compounds […] and K were applied to the forearms of volunteer human test subjects, covered with bandage gauze and allowed to remain on the skin for 16 hours. After 16 hours the ointments were washed off with soap solution, and the skin irritation and discoloration, if any, were evaluated visually and photographed. Then, the test ointments were again administered and allowed to remain on the skin until the next day. Again, the reactions were evaluated and a new treatment was started.

guinea pigs = experiment: Sensitizing activity on guinea pigs; format: in vivo, guinea pig (Perbright White strain); conditions: 1:10 to 1:50 of the original concentrations, behind the ears
Experimental: The sensitizing activity was tested 2 weeks after the skin compatibility test with 1:10 to 1:50 of the originally used concentrations behind the ears.

skin of guinea pigs = experiment: Skin compatibility test on guinea pigs; format: in vivo, guinea pig (Perbright White strain); conditions: for Sum of the reactions divided by the number of animals: 0.03%, score 0 no irritation to 3 very strong erythema
Experimental: Guinea pigs of the Perbright White strain, with a body weight of about 350 gm, were fed with standard guinea pig feed (Altromin 3022) and water ad lib.
During the test, the animals were kept in single cages. The test substances, which were dissolved in a well compatible solvent, were applied to the skin of the animals (diameter of the test area 3.5 cm) daily for 3 weeks, from Monday to Friday. The animals were shaved each Monday, Wednesday and Friday in the early morning, the treatment with the test substances was performed in the early afternoon. Immediately before administration of the substance, the skin reaction was tested. The evaluation was carried out visually, and erythema, edema, and mycosis of the skin were considered.
The following evaluation was made:
2: strong erythema with beginning edema
3: very strong erythema with edema or beginning necrosis.
The numerical sum of the reactions was used for the total evaluation of a group of animals.

[3] = Penetration and metabolization in the skin in vitro; format: in vitro ADME, pig; conditions: thin-layer chromatography
psoriasis = conditions: cited from earlier work; for antipsoriatic activity: literature or prior use

Row | SMILES | skin irritation and/or discoloration (skin) | ED50, inhibition of incubation after 120 minutes [1] [µg/mL] | discoloration of the skin [2] | skin irritation [2] | other results
1 | CC(=O)C1c2cccc(O)c2C(=O)c2c(O)cccc21 [10-Acetyl-dithranol] | discolored and irritated the skin at concentrations from 0.5% even more than the starting compound | – | – | – | –
2 | Cc1cc(O)c2c(c1)Cc1cccc(O)c1C2=O [Compound B, 1,8-Dihydroxy-3-methyl-9-(10H)-anthracenone, reference compound] | – | 6.86 | skin discoloration similar to compound A | – | –
3 | O=C1c2c(O)cccc2Cc2ccc(C3CCCCC3)c(O)c21 [Compound I, 2-Cyclohexyl-1,8-dihydroxy-9-(10H)anthracenone] | – | 3.94 | – | – | –
4 | CC(C)(C)c1ccc2c(c1O)C(=O)c1c(O)cccc1C2 [D, 2-tert. Butyl-1,8-dihydroxy-9-(10H)anthracenone] | – | 6.32 | no skin irritation or discoloration of the skin | no skin irritation | sensitization (guinea pigs): no sensitization; Sum of the reactions divided by the number of animals (skin of guinea pigs; end of 1st week): 0.083; Sum of the reactions divided by the number of animals (skin of guinea pigs; end of 2nd week): 0.042; Sum of the reactions divided by the number of animals (skin of guinea pigs; end of 3rd week): 0.00; skin compatibility compared with compound A (skin of guinea pigs; Table 3): considerably more skin-compatible than compound A
5 | CCCCC(C)c1ccc2c(c1O)C(=O)c1c(O)cccc1C2 (centres unmarked) [E, 2-(2-Hexyl)-1,8-dihydroxy-9-(10H)anthracenone] | – | 3.61 | no skin irritation or discoloration of the skin | no skin irritation | –
6 | CC(C)c1cc(C(C)C)c2c(c1O)C(=O)c1c(O)cccc1C2 [G, 1,8-Dihydroxy-2,4-diisopropyl-9-(10H)anthracenone] | – | 5.67 | no skin irritation or discoloration of the skin | no skin irritation | penetration into the layers of the skin ([3]; same carriers): penetrate to an approximately equal extent; metabolization in the skin [3]: metabolized in a similar manner
7 | O=C1c2c(O)cccc2Cc2c(Cl)ccc(O)c21 [H, 4-Chloro-1,8-dihydroxy-9-(10H)anthracenone] | – | 3.85 | – | – | –
8 | O=CCCC1(CCC=O)c2cccc(O)c2C(=O)c2c(O)cccc21 [bis-(formylethyl)-dithranol] | no irritation and discoloration | – | – | – | antipsoriatic activity (psoriasis): did not exhibit any antipsoriatic activity
9 | CC(=O)Oc1cccc2cc3cccc(OC(C)=O)c3c(OC(C)=O)c12 [dithranol triacetate, 1,8,9-Triacetoxyanthracene] | less skin irritation | – | – | – | antipsoriatic activity (psoriasis): less active than dithranol; therapeutic index (psoriasis; literature, compared with dithranol): a real improvement of the therapeutic index could not be obtained
